Data on one compound can be found in PMC10159843, “Babesia duncani multi-omics identifies virulence factors and drug targets” (Nature Microbiology, 2023).

This assay deals with BdATVR parasites. In kind it is cell-based, Babesia duncani. The note with it: IC50 BdATVR versus WA1.

`O=C1C(O)=C([C@H]2CC[C@H](c3ccc(Cl)cc3)CC2)C(=O)c2ccccc21` [Atovaquone]: the “fold resistance of BdATVR compared with WA1” value was 15.2 fold.
